Data reported in paper PMC8838521, “Antimicrobial, Cytotoxic and Mutagenic Activity of Gemini QAS Derivatives of 1,4:3,6-Dianhydro-L-iditol” (Molecules, 2022).
“And” between values parts separate entries of the source, which are not always exact repeats. Identical values can stand only once. “Also recorded” adds a separate entry of the source. Like-named read-outs stand apart in the source and are kept apart here.

How the values were obtained:
[1] = Solubility observed during assays; type: physicochemical; settings: for Solubility in water and DMSO: for Ames test; for Solubility in water: observed during antimicrobial assays, DMSO used for solubilisation
[2] = test system: Candida glabrata DSMZ 11226; assay: Antimicrobial activity, microdilution MIC, C. glabrata; type: cell-based; settings: Nakaseomyces glabratus, DSMZ11226, 24 h, MIC90, 24 h, RPMI; read-out: MIC C. glabrata DSMZ 11226
Procedure: (§1) The antimicrobial potential of the tested agents was evaluated against two reference strains of bacteria: Staphylococcus aureus ATCC 25923 and Escherichia coli K12, two reference strains of pathogenic yeasts, Candida albicans ATCC10231 and Candida glabrata DSMZ11226, as well as 20 strains of clinical isolates of S. aureus collected from patients with skin and soft tissue infections (n = 8) and strains derived from subclinical bovine mastitis milk samples (n = 12). Four of these strains, two isolated from human infections and two isolated from bovine mastitis, were classified as MRSA (Methicillin-resistant Staphylococcus aureus). All of them were mecA positive and their methicillin resistance was confirmed with the disc diffusion assay. The remaining 16 strains were MSSA (Methicillin-sensitive Staphylococcus aureus). The assays were performed using a serial, two-fold dilution method in 96-well microtiter plates under conditions recommended by the Clinical and Laboratory Standards Institute (CLSI, Pittsburgh, PA, USA). The aim of this procedure was the determination of the MIC parameter (Minimum Inhibitory Concentration)—the minimum concentration of a tested agent capable to inhibit the growth of a specified strain of microorganism. The agents were solubilized in deionized, sterile water to a final concentration of […]. Subsequently, solutions were mixed (1:1 (v/v)) with 2 × concentrated liquid medium, Mueller-Hinton Broth 2—cation adjusted (MHB2) for evaluation of antibacterial activity and RPMI in the case of evaluation of the antifungal activity. […] Subsequently, the solutions were mixed with MHB2 or RPMI medium to get the final concentration of 8.192 mg/mL (8192 µg/mL). In the next step, the serial, two-fold dilutions of the tested agents (over the range of concentrations from 8192 to 8 µg/mL for reference strains of bacteria and yeasts and from 512 to 1.0 µg/mL for clinical isolates of S. aureus) were prepared in 96-well microtitration plates in the final volume of 100 μL of the appropriate medium.
(§2) The pure cultures of yeast strains were grown on the Sabouraud Dextrose Agar (SDA) for 18–24 h at 37 °C. Suspensions of the microorganisms were prepared by taking one loop of pure culture into sterile water and adjusting optical density to 0.1 at 660 nm and further 50-fold dilution in RPMI 1640 medium resulting in cells concentration of approximate 2 × 10^4 CFU/mL. One hundred μL of that suspension was inoculated to the wells of the microtitration plate containing appropriate dilutions of the agents. The positive growth control of each strain (both bacteria and yeasts) was performed in the wells without the tested substances. The negative control containing only the media was included in each assay. Microtiter plates were incubated at 37 °C for 24 h. Following the incubation period, determination of the MIC values of the tested agents was carried out by measuring the absorbance at 531 nm using a Victor^3 microplate reader (Perkin Elmer, Inc., Waltham, MA, USA). The lowest concentration of the agent causing inhibition of growth equal to or higher than 90% (MIC90) of growth control was taken as the MIC value. Each test was repeated three times.

[3] = test system: S. aureus clinical isolates; assay: Antistaphylococcal activity, microdilution MIC, clinical isolates; type: cell-based; settings: Staphylococcus aureus
Procedure: as §1
The pure bacterial cultures of (both the reference and clinical strains) were grown on the Mueller-Hinton Agar (MHA) for 18–24 h at 37 °C. A small amount of the biomass of the culture of each strain of microorganisms was suspended in the sterile PBS (phosphate buffered saline, pH 7.4 at 25 °C, purchased from Sigma) solution to get an optical density OD600 = 0.13 (equal to the cells concentration approximately 1 × 10^8 CFU/mL). The obtained suspensions of the cells were next diluted 1:100 (v/v) in the MHB2 medium. One hundred µL of the cells’ suspension was finally loaded into the wells of plates prepared in advance, which contained 100 µL of two-fold dilutions of the tested agents (the final concentration of the bacterial cells in all wells was approximately 5 × 10^5 CFU/mL).
as §2, with “times. […]” for “times.”

[4] = 20 clinical isolates, typical value, read-out: MIC against S. aureus clinical isolates, in general
[5] = isolate 1, human infection, MSSA, read-out: MIC S. aureus isolate 1
[6] = isolate 2, human infection, MSSA, read-out: MIC S. aureus isolate 2
[7] = isolate 3, human infection, MSSA, read-out: MIC S. aureus isolate 3
[8] = isolate 4, human infection, MSSA, read-out: MIC S. aureus isolate 4
[9] = isolate 5, human infection, MSSA, read-out: MIC S. aureus isolate 5
[10] = isolate 6, human infection, MSSA, read-out: MIC S. aureus isolate 6
[11] = isolate 7, human infection, MRSA, read-out: MIC S. aureus isolate 7
[12] = isolate 8, human infection, MRSA, read-out: MIC S. aureus isolate 8
[13] = isolate 9, bovine mastitis, MSSA, read-out: MIC S. aureus isolate 9
[14] = isolate 10, bovine mastitis, MSSA, read-out: MIC S. aureus isolate 10
[15] = isolate 11, bovine mastitis, MSSA, read-out: MIC S. aureus isolate 11
[16] = isolate 12, bovine mastitis, MSSA, read-out: MIC S. aureus isolate 12
[17] = isolate 13, bovine mastitis, MSSA, read-out: MIC S. aureus isolate 13
[18] = isolate 14, bovine mastitis, MSSA, read-out: MIC S. aureus isolate 14
[19] = isolate 15, bovine mastitis, MSSA, read-out: MIC S. aureus isolate 15
[20] = isolate 16, bovine mastitis, MSSA, read-out: MIC S. aureus isolate 16
[21] = isolate 17, bovine mastitis, MSSA, read-out: MIC S. aureus isolate 17
[22] = isolate 18, bovine mastitis, MSSA, read-out: MIC S. aureus isolate 18
[23] = isolate 19, bovine mastitis, MRSA, read-out: MIC S. aureus isolate 19
[24] = isolate 20, bovine mastitis, MRSA, read-out: MIC S. aureus isolate 20

Row | SMILES | Solubility in water and DMSO [1] | Solubility in water [1] | MIC [2] | MIC [3, 4] | MIC [3, 5] | MIC [3, 6] | MIC [3, 7] | MIC [3, 8] | MIC [3, 9] | MIC [3, 10] | MIC [3, 11] | MIC [3, 12] | MIC [3, 13] | MIC [3, 14] | MIC [3, 15] | MIC [3, 16] | MIC [3, 17] | MIC [3, 18] | MIC [3, 19] | MIC [3, 20] | other results
1 | CCCCCCCC[N+](C)(C)C1COC2C1OCC2[N+](C)(C)CCCCCCCC (stereo not shown) [QAS 9] | insufficient solubility in both water and DMSO | suppressed water solubility; also recorded: lower solubility in water | 1020 µg/mL and 1410 µM | 64 µg/mL | 64 µg/mL and 88 µM | 64 µg/mL and 88 µM | 64 µg/mL and 88 µM | 128 µg/mL and 176 µM | 64 µg/mL and 88 µM | 64 µg/mL and 88 µM | 64 µg/mL and 88 µM | 64 µg/mL and 88 µM | 64 µg/mL and 88 µM | 64 µg/mL and 88 µM | 64 µg/mL and 88 µM | 64 µg/mL and 88 µM | 64 µg/mL and 88 µM | 64 µg/mL and 88 µM | 64 µg/mL and 88 µM | 64 µg/mL and 88 µM | MIC [3, 21]: 64 µg/mL and 88 µM; MIC [3, 22]: 64 µg/mL and 88 µM; MIC [3, 23]: 64 µg/mL and 88 µM; MIC [3, 24]: 64 µg/mL and 88 µM
2 | CCCCCCCCCC[N+](C)(C)C1COC2C1OCC2[N+](C)(C)CCCCCCCCCC [QAS 10, N,N’-(1,4:3,6-Dianhydro-2,5-dideoxy-L-iditol-2,5-diyl)-bis(N,N-dimethyl-N-decylammonium) Ditrifluoromethanesulfonate] | insufficient solubility in both water and DMSO | suppressed water solubility; also recorded: lower solubility in water | 16 µg/mL and 20 µM | 8 µg/mL | 8 µg/mL and 10 µM | 8 µg/mL and 10 µM | 4 µg/mL and 5 µM | 8 µg/mL and 10 µM | 8 µg/mL and 10 µM | 8 µg/mL and 10 µM | 4 µg/mL and 5 µM | 8 µg/mL and 10 µM | 8 µg/mL and 10 µM | 8 µg/mL and 10 µM | 8 µg/mL and 10 µM | 8 µg/mL and 10 µM | 8 µg/mL and 10 µM | 4 µg/mL and 5 µM | 8 µg/mL and 10 µM | 8 µg/mL and 10 µM | MIC [3, 21]: 8 µg/mL and 10 µM; MIC [3, 22]: 8 µg/mL and 10 µM; MIC [3, 23]: 8 µg/mL and 10 µM; MIC [3, 24]: 8 µg/mL and 10 µM; MIC ([3]; more susceptible strains among 20 isolates, read-out: MIC of more susceptible S. aureus clinical strains): 4 µg/mL
